≈ marks a conversion by molar mass, not a printed value.

A short description of this assay: Cytotoxicity against Homo sapiens (human) U87 cells by MTT assay. The format is functional, cell-based, U-87MG ATCC. To be noted: U-87 MG. (In general: Tetrazolium dyes change colour on reduction, which living cells bring about.)
A word on the IC50: it is the concentration that inhibits the measured activity by half. A low value points to higher potency. `N#CC1=C(N)Oc2[nH]c(=O)[nH]c(=S)c2C12C(=O)N(CCCCCCCCCCBr)c1ccccc12` (configuration not stated) showed an IC50 of 39 µg/mL (≈ 69.8 µM).
Turning to `CC1(C)CC(=O)C2=C(C1)OC(N)=C(C#N)C21C(=O)N(CCBr)c2ccccc21` (configuration not stated), half-maximal inhibition (IC50) required 78 µg/mL (≈ 176 µM). Against the preceding compound, the IC50 is about 2-fold higher.
For the compound `N#CC1=C(N)Oc2[nH]c(=O)[nH]c(=S)c2C12C(=O)N(CCCBr)c1ccccc12` (configuration not stated), the IC50 worked out at 624 µg/mL (≈ 1360 µM).
On to `N#CC1=C(N)Oc2[nH]c(=S)[nH]c(=O)c2C12C(=O)N(CCBr)c1ccccc12` (configuration not stated), for which it took 78 µg/mL (≈ 175 µM) to reach half-maximal inhibition (IC50).
For `N#CC1=C(N)OC2=C(C(=O)CCC2)C12C(=O)N(CCCBr)c1ccccc12` (configuration not stated), the IC50 was determined as 624 µg/mL (≈ 1460 µM).
Compound `Cc1nn(-c2ccccc2)c2c1C1(C(=O)N(CCCCCCBr)c3ccccc31)C(C#N)=C(N)O2` (configuration not stated) had a concentration for half-maximal inhibition (IC50) of 78 µg/mL (≈ 146 µM).
`Cc1nn(-c2ccccc2)c2c1C1(C(=O)Nc3ccc(Br)cc31)C(C#N)=C(N)O2` (configuration not stated) yielded an IC50 of 156 µg/mL (≈ 348 µM). This IC50 is about 2-fold higher than that of the compound before.
`Cc1nn(-c2ccccc2)c2c1C1(C(=O)N(CCCCCCCCCCBr)c3ccccc31)C(C#N)=C(N)O2` (configuration not stated) yielded a half-inhibitory concentration (IC50) of 19 µg/mL (≈ 32.3 µM). Compared with the last compound, the IC50 is about 8.2-fold lower.
The compound `O=C1C(=O)N(CCCCCCCCCCBr)c2ccccc21` came in with an IC50 of 19 µg/mL (≈ 51.9 µM).
With `N#CC1=C(N)Oc2c(c(=O)oc3ccccc23)C12C(=O)N(CCCBr)c1ccccc12` (configuration not stated) the figure was 156 µg/mL (≈ 326 µM); with `N#CC1=C(N)Oc2c(c(=O)oc3ccccc23)C12C(=O)N(CCCCBr)c1ccccc12` (configuration not stated), 78 µg/mL (≈ 158 µM); with `N#CC1=C(N)Oc2c(c(=O)oc3ccccc23)C12C(=O)N(CCBr)c1ccccc12` (configuration not stated), 78 µg/mL (≈ 168 µM).
`Cc1nn(-c2ccccc2)c2c1C1(C(=O)N(CCCBr)c3ccccc31)C(C#N)=C(N)O2` (configuration not stated) displayed an IC50 of 78 µg/mL (≈ 159 µM).
For `N#CC1=C(N)Oc2c(c(=O)oc3ccccc23)C12C(=O)Nc1ccc(Br)cc12` (configuration not stated), the midpoint of inhibition, the IC50, lay at 78 µg/mL (≈ 179 µM).
Compound `N#CC1=C(N)OC2=C(C(=O)CCC2)C12C(=O)N(CCBr)c1ccccc12` (configuration not stated) returned a 50% inhibitory concentration (IC50) of 78 µg/mL (≈ 188 µM).
`N#CC1=C(N)Oc2[nH]c(=O)[nH]c(=O)c2C12C(=O)N(CCCCCCBr)c1ccccc12` (configuration not stated) showed an IC50 of 78 µg/mL (≈ 160 µM).
The same measure for `N#CC1=C(N)Oc2[nH]c(=O)[nH]c(=O)c2C12C(=O)N(CCCBr)c1ccccc12` (configuration not stated): 312 µg/mL (≈ 702 µM); for `O=NN(CCCl)C(=O)NCCCl` [CARMUSTINE]: 3.9 µg/mL (≈ 18.2 µM).
`N#CC1=C(N)OC2=C(C(=O)CCC2)C12C(=O)Nc1ccccc12` (configuration not stated) came in with an IC50 of 156 µg/mL (≈ 508 µM).
Consider `N#CC1=C(N)OC2=C(C(=O)CCC2)C12C(=O)Nc1ccc(Br)cc12` (configuration not stated), for which the IC50 was found to be 312 µg/mL (≈ 808 µM).
The same measure for `N#CC1=C(N)Oc2[nH]c(=O)[nH]c(=O)c2C12C(=O)Nc1ccc(Br)cc12` (configuration not stated): 78 µg/mL (≈ 194 µM); for `N#CC1=C(N)Oc2c(c(=O)oc3ccccc23)C12C(=O)N(CCCCCCBr)c1ccccc12` (configuration not stated): 156 µg/mL (≈ 300 µM).
In the case of `N#CC1=C(N)Oc2[nH]c(=S)[nH]c(=O)c2C12C(=O)N(CCCCBr)c1ccccc12` (configuration not stated), the IC50 is 78 µg/mL (≈ 164 µM). Against the preceding compound, the IC50 is about 2-fold lower.
`N#CC1=C(N)Oc2[nH]c(=O)[nH]c(=O)c2C12C(=O)Nc1ccccc12` (configuration not stated) returned an IC50 of 312 µg/mL (≈ 965 µM).
The same measure for `CC1(C)CC(=O)C2=C(C1)OC(N)=C(C#N)C21C(=O)N(CCCBr)c2ccccc21` (configuration not stated): 312 µg/mL (≈ 684 µM); for `O=C1C(=O)N(CCCCBr)c2ccccc21`: 19 µg/mL (≈ 67.3 µM); for `O=C1C(=O)N(CCBr)c2ccccc21`: 4.9 µg/mL (≈ 19.3 µM).
Compound `N#CC1=C(N)Oc2[nH]c(=O)[nH]c(=O)c2C12C(=O)N(CCBr)c1ccccc12` (configuration not stated) gave a concentration for half-maximal inhibition (IC50) of 78 µg/mL (≈ 181 µM).
The compound `N#CC1=C(N)Oc2[nH]c(=O)[nH]c(=O)c2C12C(=O)N(CCCCBr)c1ccccc12` (configuration not stated) yielded an IC50 of 312 µg/mL (≈ 681 µM).
The same measure for `N#CC1=C(N)Oc2[nH]c(=O)[nH]c(=O)c2C12C(=O)N(CCCCCCCCCCBr)c1ccccc12` (configuration not stated): 39 µg/mL (≈ 71.9 µM); for `N#CC1=C(N)Oc2c(c(=O)oc3ccccc23)C12C(=O)Nc1ccccc12` (configuration not stated): 78 µg/mL (≈ 218 µM).
`CC1(C)CC(=O)C2=C(C1)OC(N)=C(C#N)C21C(=O)N(CCCCCCBr)c2ccccc21` (configuration not stated): the IC50 amounted to 78 µg/mL (≈ 156 µM).
The same measure for `N#CC1=C(N)Oc2[nH]c(=S)[nH]c(=O)c2C12C(=O)Nc1ccc(Br)cc12` (configuration not stated): 156 µg/mL (≈ 373 µM).
Consider `O=C1C(=O)N(CCCCCCBr)c2ccccc21`, for which half-maximal inhibition (IC50) required 19 µg/mL (≈ 61.3 µM).
The compound `N#CC1=C(N)Oc2c(c(=O)oc3ccccc23)C12C(=O)N(CCCCCCCCCCBr)c1ccccc12` (configuration not stated) registered an IC50 of 39 µg/mL (≈ 67.7 µM).
`CC1(C)CC(=O)C2=C(C1)OC(N)=C(C#N)C21C(=O)N(CCCCBr)c2ccccc21` (configuration not stated) returned an IC50 of 156 µg/mL (≈ 332 µM).
Regarding `Cc1nn(-c2ccccc2)c2c1C1(C(=O)N(CCCCBr)c3ccccc31)C(C#N)=C(N)O2` (configuration not stated), the IC50 is 39 µg/mL (≈ 77.3 µM).
Compound `Cc1nn(-c2ccccc2)c2c1C1(C(=O)N(CCBr)c3ccccc31)C(C#N)=C(N)O2` (configuration not stated) showed a half-maximal inhibitory concentration (IC50) of 78 µg/mL (≈ 164 µM).
`Cc1nn(-c2ccccc2)c2c1C1(C(=O)Nc3ccccc31)C(C#N)=C(N)O2` (configuration not stated) showed an IC50 of 156 µg/mL (≈ 422 µM).
The same measure for `CC1(C)CC(=O)C2=C(C1)OC(N)=C(C#N)C21C(=O)N(CCCCCCCCCCBr)c2ccccc21` (configuration not stated): 2.5 µg/mL (≈ 4.51 µM); for `O=C1C(=O)N(CCCBr)c2ccccc21`: 2.5 µg/mL (≈ 9.32 µM); for `N#CC1=C(N)Oc2[nH]c(=S)[nH]c(=O)c2C12C(=O)N(CCCCCCBr)c1ccccc12` (configuration not stated): 78 µg/mL (≈ 155 µM).
